Measured values from patent US20070232563A1, “Method for Enhancing Biological Activity and/or Expanding Suitable Region for Biological Activity of Living Body Contacting with Aqueous Environment” (Kabushiki Kaisha Hayashibara Seibutsu Kagaku Kenky, priority 2004, published 2007).

System: crucian (Carassium cuvieri)
Experiment: Removing fishy smell of freshwater fish: activity and sashimi panel
Assay type: in vivo, Carassius cuvieri
Settings: macroscopic observation; bred three days; each ingredient 1 (w/v)%
Procedure: Two per group of living crucian (Carassium cuvieri) with body size in the range of 15 to 20 cm were bred at ambient temperature in an aquarium filled with 10 L of an aqueous solution containing 1 w/v % mineral (solar salt) and 1 w/v % α,α-trehalose or α-maltosyl α,α-trehalose, on a dry solid basis, for three days. Waters containing either of mineral, α,α-trehalose or α-maltosyl α,α-trehalose as references and water without any mineral and saccharides as a control were prepared to breed the fishes similarly as above. The fishes were macroscopically observed their activity, and then prepated into sashimi. Twenty panels were allowed to taste them to judge their flavor and taste (fishy smell) in such a manner of comparing with references by the following four judgment criterions; “good”: no fishy smell; “slightly good”: fishy smell is weaker than the references; “normal”: fishy smell is equal to the references; and “bad”: fishy smell is stronger than the references.

OC[C@H]1O[C@H](O[C@H]2O[C@H](CO)[C@@H](O)[C@H](O)[C@H]2O)[C@H](O)[C@@H](O)[C@@H]1O [α,α-Trehalose, α,α-trehalose]
Activity of Carassius cuvieri: Good

OC[C@H]1O[C@H](O[C@H]2O[C@H](CO)[C@@H](O[C@H]3O[C@H](CO)[C@@H](O[C@H]4O[C@H](CO)[C@@H](O)[C@H](O)[C@H]4O)[C@H](O)[C@H]3O)[C@H](O)[C@H]2O)[C@H](O)[C@@H](O)[C@@H]1O [α-Maltosyl α,α-trehalose, α-maltosyl α,α-trehalose]
Activity of Carassius cuvieri: Good
